Experimental data taken from ChEMBL document CHEMBL1201862, “PubChem BioAssay data set” (2004).
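Five concentrations, 48 hours, 96-well plates. The concentration for 50% growth inhibition is given as GI50.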 The source made the active and inactive calls. No stated cut-off is given here; in the data, active = GI50 up to about 1.1 µM and inactive = higher. Where a SMILES comes first, the peptide text is derived from it. [ ]: non-standard residue; d: D form. pGlu = O=C1CC[CH](C(=O)O)N1

Legend:
Assay in all cases: NCI tumour cell line growth inhibition, 48 h
MDA-MB-435 = tested on: MDA-MB-435
HCT-116 = tested on: HCT-116
M14 = tested on: M14
A549 = tested on: A549
NCI-H460 = tested on: NCI-H460
HL-60 = tested on: HL-60
CAKI-1 = tested on: CAKI-1
Malme-3M = tested on: Malme-3M
RXF 393 = tested on: RXF 393
LOX IMVI = tested on: LOX IMVI
SNB-75 = tested on: SNB-75
UO-31 = tested on: UO-31
OVCAR-3 = tested on: OVCAR-3
SN12C = tested on: SN12C
OVCAR-8 = tested on: OVCAR-8
NCI-H23 = tested on: NCI-H23
SF-295 = tested on: SF-295
MCF7 = tested on: MCF7
MDA-N = tested on: MDA-N
SF-539 = tested on: SF-539

Structure (SMILES) | GI50 (MDA-MB-435) | GI50 (HCT-116) | GI50 (M14) | GI50 (A549) | GI50 (NCI-H460) | GI50 (HL-60) | GI50 (CAKI-1) | GI50 (Malme-3M) | GI50 (RXF 393) | GI50 (LOX IMVI) | GI50 (SNB-75) | GI50 (UO-31) | GI50 (OVCAR-3) | GI50 (SN12C) | GI50 (OVCAR-8) | GI50 (NCI-H23) | GI50 (SF-295) | GI50 (MCF7) | GI50 (MDA-N) | GI50 (SF-539)
CC(NC(=O)C1CCC(=O)N1)C(=O)N1CCCC1C(N)=O (stereo not drawn) ([pGlu]-Ala-Pro-NH2; configuration not given here) | > 100 µM (inactive) | > 100 µM (inactive) | > 100 µM (inactive) | > 100 µM (inactive) | > 100 µM (inactive) | > 100 µM (inactive) | > 100 µM (inactive) | > 100 µM (inactive) | > 100 µM (inactive) | > 100 µM (inactive) | > 100 µM (inactive) | > 100 µM (inactive) | > 100 µM (inactive) | > 100 µM (inactive) | > 100 µM (inactive) | > 100 µM (inactive) | > 100 µM (inactive) | > 100 µM (inactive) | > 100 µM (inactive) | –
CC(=O)O[C@H]1C(=O)[C@]2(C)[C@@H](OC(=O)OCC(O)CO)C[C@H]3OC[C@@]3(OC(C)=O)[C@H]2[C@H](OC(=O)c2ccccc2)[C@]2(O)C[C@H](OC(=O)[C@H](O)[C@@H](NC(=O)c3ccccc3)c3ccccc3)C(C)=C1C2(C)C (stereo partly specified) [PACLITAXEL CERIBATE] | < 0.01 µM (active) | < 0.01 µM (active) | < 0.01 µM (active) | < 0.01 µM (active) | < 0.01 µM (active) | < 0.01 µM (active) | 0.893 µM (active) | – | < 0.01 µM (active) | < 0.01 µM (active) | < 0.01 µM (active) | 0.601 µM (active) | < 0.01 µM (active) | < 0.01 µM (active) | < 0.01 µM (active) | < 0.01 µM (active) | < 0.01 µM (active) | < 0.01 µM (active) | < 0.01 µM (active) | < 0.01 µM (active)
CN(C)CCCNc1ccc([N+](=O)[O-])c2nc3ccccc3c(N)c12 | 0.718 µM (active) | 0.124 µM (active) | 0.7 µM (active) | 0.512 µM (active) | 0.352 µM (active) | 0.459 µM (active) | 2.67 µM (inactive) | 0.51 µM (active) | 0.736 µM (active) | 0.36 µM (active) | – | 0.942 µM (active) | 0.63 µM (active) | 0.771 µM (active) | 0.483 µM (active) | 0.9 µM (active) | 0.382 µM (active) | 0.459 µM (active) | 0.458 µM (active) | 0.449 µM (active)
CCCc1c(Cl)nc(Cl)nc1Cl | 0.471 µM (active) | 0.546 µM (active) | 0.192 µM (active) | 4.63 µM (inactive) | 1.2 µM (inactive) | 0.48 µM (active) | – | < 0.0208 µM (active) | 1.09 µM (active) | < 0.01 µM (active) | 9.18 µM (inactive) | 25.4 µM (inactive) | 1.01 µM (active) | 0.467 µM (active) | 1.05 µM (active) | 0.428 µM (active) | 4.16 µM (inactive) | 1.73 µM (inactive) | 0.211 µM (active) | 2.54 µM (inactive)
Cc1ccc(S(=O)(=O)N2CCC[C@@H]2C(=O)O[C@@H]2CCC3CC=CC32)cc1 (stereo partly specified) | 35.1 µM (inactive) | 30.4 µM (inactive) | 34.6 µM (inactive) | 34.5 µM (inactive) | 35.6 µM (inactive) | 11.5 µM (inactive) | – | 24.5 µM (inactive) | 20 µM (inactive) | 16.1 µM (inactive) | 26.1 µM (inactive) | 13.6 µM (inactive) | 12.1 µM (inactive) | 28.1 µM (inactive) | 34.4 µM (inactive) | 35.1 µM (inactive) | 36.8 µM (inactive) | 33.9 µM (inactive) | 29.2 µM (inactive) | 44.5 µM (inactive)
COC(=O)C1CCC(=O)N1C(c1ccccc1)c1cc(OC)c(OC)c(OC)c1 (stereo unspecified) | 22.3 µM (inactive) | 50 µM (inactive) | 43 µM (inactive) | 54.2 µM (inactive) | 43 µM (inactive) | 29.4 µM (inactive) | 22.3 µM (inactive) | 61.1 µM (inactive) | > 100 µM (inactive) | 56.2 µM (inactive) | – | 55.1 µM (inactive) | 51.2 µM (inactive) | 80.5 µM (inactive) | > 100 µM (inactive) | 62.4 µM (inactive) | 38.9 µM (inactive) | 67.9 µM (inactive) | 21.8 µM (inactive) | 69.5 µM (inactive)
CC[C@]1(Cc2ccc(OC)c(OC)c2)C=[N+]([O-])O[C@H](OC2CCCCC2c2ccccc2)[C@@H]1OC(C)=O (stereo partly specified) | 50.6 µM (inactive) | 34.1 µM (inactive) | 45.3 µM (inactive) | 41.5 µM (inactive) | 37.5 µM (inactive) | 18.1 µM (inactive) | 21.2 µM (inactive) | 52.8 µM (inactive) | 22.5 µM (inactive) | 40.9 µM (inactive) | 32.2 µM (inactive) | 41.2 µM (inactive) | 33.4 µM (inactive) | 36.6 µM (inactive) | 50.6 µM (inactive) | 56.1 µM (inactive) | 37.9 µM (inactive) | 28.8 µM (inactive) | 53.5 µM (inactive) | –
CCOC(=O)Cc1nc2sc(S(N)(=O)=O)nn2c1Br | 38.7 µM (inactive) | 31 µM (inactive) | 15.7 µM (inactive) | 33 µM (inactive) | 32 µM (inactive) | 25.5 µM (inactive) | 17.2 µM (inactive) | 29.2 µM (inactive) | 21.7 µM (inactive) | 16.1 µM (inactive) | 32.1 µM (inactive) | 15.8 µM (inactive) | 36.6 µM (inactive) | 23.5 µM (inactive) | 21.3 µM (inactive) | 27.6 µM (inactive) | > 100 µM (inactive) | 24.7 µM (inactive) | 35.1 µM (inactive) | –
Cc1cc(C)n(C(C)(C(=O)Cc2ccccc2)n2nc(C)cc2C)n1 | > 100 µM (inactive) | > 100 µM (inactive) | > 100 µM (inactive) | > 100 µM (inactive) | > 100 µM (inactive) | > 100 µM (inactive) | > 100 µM (inactive) | > 100 µM (inactive) | > 100 µM (inactive) | > 100 µM (inactive) | – | > 100 µM (inactive) | > 100 µM (inactive) | > 100 µM (inactive) | > 100 µM (inactive) | > 100 µM (inactive) | > 100 µM (inactive) | > 100 µM (inactive) | > 100 µM (inactive) | > 100 µM (inactive)
O=CC(O)C(O)C1OC(=O)c2cc(O)c(O)c(O)c2C2=C(O)C(O)=C3OC(=O)c4c(c(O)c(O)c5c4C3C2C(=O)O5)-c2c(cc(O)c(O)c2O)C(=O)OCC1O (stereo unspecified) | 16.5 µM (inactive) | 15.4 µM (inactive) | 22.4 µM (inactive) | 24.5 µM (inactive) | 26.2 µM (inactive) | 12.3 µM (inactive) | 18.1 µM (inactive) | 81.8 µM (inactive) | > 100 µM (inactive) | 13.6 µM (inactive) | 27.4 µM (inactive) | 14.7 µM (inactive) | 18.2 µM (inactive) | 15.2 µM (inactive) | 20.1 µM (inactive) | 78 µM (inactive) | 26.4 µM (inactive) | 17.2 µM (inactive) | 19 µM (inactive) | –
Cc1ccc([N+](=O)[O-])cc1S(=O)(=O)Nc1ccc(C2=NN(c3ccc([N+](=O)[O-])cc3[N+](=O)[O-])C(c3ccccc3O)C2)cc1 (stereo unspecified) | 39.4 µM (inactive) | 29 µM (inactive) | 34.2 µM (inactive) | 31.4 µM (inactive) | – | 27.4 µM (inactive) | 33.8 µM (inactive) | 41.7 µM (inactive) | 40.6 µM (inactive) | 42 µM (inactive) | 40.4 µM (inactive) | 24.5 µM (inactive) | 24.9 µM (inactive) | 18 µM (inactive) | 38.4 µM (inactive) | 19.6 µM (inactive) | 29.9 µM (inactive) | 27.9 µM (inactive) | 29.3 µM (inactive) | 55.5 µM (inactive)
Cc1ccc(-c2cc(-c3ccco3)c(C#N)c(=S)[nH]2)cc1 | 23.9 µM (inactive) | 50.5 µM (inactive) | 63.8 µM (inactive) | 43.9 µM (inactive) | 46.2 µM (inactive) | 57 µM (inactive) | > 100 µM (inactive) | 24.2 µM (inactive) | 55.8 µM (inactive) | 34.8 µM (inactive) | 49.8 µM (inactive) | 33.9 µM (inactive) | 61.7 µM (inactive) | 87.9 µM (inactive) | 68.1 µM (inactive) | 29.9 µM (inactive) | 38.7 µM (inactive) | 16.2 µM (inactive) | > 10 µM (inactive) | –
CC1OC2(CC(OCc3ccccc3)C1OCc1ccccc1)OCCO2 (stereo unspecified) | 57 µM (inactive) | 45.9 µM (inactive) | 45.7 µM (inactive) | 50.7 µM (inactive) | 32 µM (inactive) | 20 µM (inactive) | 63.1 µM (inactive) | > 100 µM (inactive) | 16.4 µM (inactive) | 33.6 µM (inactive) | – | 42.3 µM (inactive) | > 100 µM (inactive) | 21.4 µM (inactive) | > 100 µM (inactive) | 35 µM (inactive) | 51.1 µM (inactive) | 66.2 µM (inactive) | 55.1 µM (inactive) | > 100 µM (inactive)
CC(C)CCCC(C)[C@H]1CCC2[C@@H]3CCC4Cc5nc6c(nc5C[C@]4(C)C3CC[C@@]21C)CC1CC[C@@H]2C(CC[C@@]3(C)C2CC[C@@H]3O)[C@@]1(C)C6 (stereo partly specified) | > 100 µM (inactive) | > 100 µM (inactive) | > 100 µM (inactive) | > 100 µM (inactive) | > 100 µM (inactive) | > 100 µM (inactive) | – | > 100 µM (inactive) | > 100 µM (inactive) | > 100 µM (inactive) | 62.2 µM (inactive) | > 100 µM (inactive) | > 100 µM (inactive) | > 100 µM (inactive) | > 100 µM (inactive) | > 100 µM (inactive) | > 100 µM (inactive) | > 100 µM (inactive) | > 100 µM (inactive) | > 100 µM (inactive)
